Several values for one entry are separate records, joined by “and”; a condition that tells them apart may be missing. Equal values may be shown once.
Experiments:
[1] = target: T1, Corticotropin-releasing factor receptor 1 (Homo sapiens, UniProt P34998); assay: Binding affinity for human recombinant corticotropin releasing factor receptor 1
T1 sequence (P34998 whole entry): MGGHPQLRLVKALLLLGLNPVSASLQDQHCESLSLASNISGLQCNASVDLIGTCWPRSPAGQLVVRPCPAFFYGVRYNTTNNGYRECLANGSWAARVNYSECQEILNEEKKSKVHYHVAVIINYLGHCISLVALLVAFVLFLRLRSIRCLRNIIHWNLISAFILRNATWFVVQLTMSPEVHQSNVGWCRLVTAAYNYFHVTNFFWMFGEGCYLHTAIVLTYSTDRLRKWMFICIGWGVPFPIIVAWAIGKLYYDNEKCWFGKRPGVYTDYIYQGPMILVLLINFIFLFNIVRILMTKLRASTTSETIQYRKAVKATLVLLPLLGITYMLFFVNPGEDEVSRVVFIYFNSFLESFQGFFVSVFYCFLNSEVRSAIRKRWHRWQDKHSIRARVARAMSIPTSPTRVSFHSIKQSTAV

[2] = target: T2, Corticotropin-releasing factor receptor 1 (Rattus norvegicus, UniProt P35353); assay: Binding affinity was measured on rat Corticotropin releasing factor receptor 1
T2 sequence (P35353 whole entry): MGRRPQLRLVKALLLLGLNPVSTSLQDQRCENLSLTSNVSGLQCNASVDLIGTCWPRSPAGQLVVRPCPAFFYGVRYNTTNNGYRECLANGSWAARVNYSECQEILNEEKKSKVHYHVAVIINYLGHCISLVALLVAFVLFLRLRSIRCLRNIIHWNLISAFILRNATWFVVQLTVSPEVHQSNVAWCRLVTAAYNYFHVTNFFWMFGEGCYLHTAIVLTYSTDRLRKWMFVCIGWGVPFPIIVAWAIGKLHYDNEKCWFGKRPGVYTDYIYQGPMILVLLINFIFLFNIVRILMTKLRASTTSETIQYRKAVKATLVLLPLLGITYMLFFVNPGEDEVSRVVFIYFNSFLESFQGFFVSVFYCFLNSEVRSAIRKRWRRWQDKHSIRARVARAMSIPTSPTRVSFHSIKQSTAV

[3] = The Tmax is the time taken to reach maximum concentration was measured in rat at dose 30 mg/kg after peroral administration.; format: ADME, organism-based; parameters: dose 30 mg/kg, route oral; conditions: in vivo, po
[4] = The clearance was measured in dog at dose 5 mg/kg after intravenous administration.; format: ADME, organism-based, Canis lupus familiaris; parameters: dose 5 mg/kg, route intravenous; conditions: in vivo
[5] = The Tmax is the time taken to reach maximum concentration was measured in dog at dose 5 mg/kg after peroral administration.; format: ADME, organism-based, Canis lupus familiaris; parameters: dose 5 mg/kg, route oral; conditions: in vivo, po
[6] = The half life period was measured in rat at dose 12 mg/kg after intravenous administration.; format: ADME, organism-based; parameters: dose 12 mg/kg, route intravenous; conditions: in vivo
[7] = The maximum concentration of the compound was measured in rat at dose 30 mg/kg after intraperitoneal administration.; format: ADME, organism-based; parameters: dose 30 mg/kg, route intraperitoneal; conditions: in vivo, ip
[8] = The half life period was measured in rat at dose 1 mg/kg after intravenous administration.; format: ADME, organism-based; parameters: dose 1 mg/kg, route intravenous; conditions: in vivo
[9] = The clearance was measured in rat at dose 12 mg/kg after intravenous administration.; format: ADME, organism-based; parameters: dose 12 mg/kg, route intravenous; conditions: in vivo
[10] = The maximum concentration of the compound was measured in rat at dose 30 mg/kg after peroral administration.; format: ADME, organism-based; parameters: dose 30 mg/kg, route oral; conditions: in vivo, po
[11] = The half life period was measured in dog at dose 5 mg/kg after intravenous administration.; format: ADME, organism-based, Canis lupus familiaris; parameters: dose 5 mg/kg, route intravenous; conditions: in vivo
[12] = Bioavailability in rat (dose 30 mg/kg i.p.); format: ADME, organism-based; conditions: in vivo, ip
[13] = The Tmax is the time taken to reach maximum concentration was measured in rat at dose 30 mg/kg after intraperitoneal administration.; format: ADME, organism-based; parameters: dose 30 mg/kg, route intraperitoneal; conditions: in vivo, ip
[14] = The bioavailability measured as F(%) in dog at dose 5 mg/kg after peroral administration.; format: ADME, organism-based, Canis lupus familiaris; conditions: in vivo, po
[15] = The maximum concentration of the compound was measured in rat at dose 1 mg/kg after peroral administration.; format: ADME, organism-based; parameters: dose 1 mg/kg, route oral; conditions: in vivo, po
[16] = The clearance was measured in rat at dose 1 mg/kg after intravenous administration.; format: ADME, organism-based; parameters: dose 1 mg/kg, route intravenous; conditions: in vivo
[17] = The Tmax is the time taken to reach maximum concentration was measured in rat at dose 1 mg/kg after peroral administration.; format: ADME, organism-based; parameters: dose 1 mg/kg, route oral; conditions: in vivo, po
[18] = The maximum concentration of the compound was measured in dog at dose 5 mg/kg after peroral administration.; format: ADME, organism-based, Canis lupus familiaris; parameters: dose 5 mg/kg, route oral; conditions: in vivo, po
[19] = The bioavailability measured as F(%) on rat at dose 30 mg/kg […].; format: ADME, organism-based; conditions: in vivo
[20] = Tmax is the time taken to reach maximum concentration was measured on rat at dose 30 mg/kg after intraperitoneal administration.; format: ADME, organism-based; parameters: dose 30 mg/kg, route intraperitoneal; conditions: in vivo, ip
[21] = The clearance was measured in rat at dose 30 mg/kg after intravenous administration.; format: ADME, organism-based; parameters: dose 30 mg/kg, route intravenous; conditions: in vivo
[22] = The maximum concentration of the compound was measured in rat at dose 30 mg/kg after intravenous administration.; format: ADME, organism-based; parameters: dose 30 mg/kg, route intravenous; conditions: in vivo
[23] = the half life period was measured in rat at dose 30 mg/kg after intravenous administration.; format: ADME, organism-based; parameters: dose 30 mg/kg, route intravenous; conditions: in vivo
[24] = Tmax is the time taken to reach maximum concentration was measured on rat at dose 30 mg/kg after intravenous administration.; format: ADME, organism-based; parameters: dose 30 mg/kg, route intravenous; conditions: in vivo

SMILES: CCN(c1nc(C)cc(C)n1)c1c(Br)cc(C(C)C)cc1OC
- Ki [1]: 26 nM

SMILES: Cc1cc(C)nc(N(C)c2ccccc2I)n1
- Ki [2]: 3650 nM

SMILES: CCCN(c1cc(C)nc(N(CC)c2ccc(C(C)C)cc2Br)n1)C1CC1
- Ki [1]: 5 nM

SMILES: CCCCN(CC)c1cc(C)nc(N(CC)c2ccc(I)cc2Br)n1
- Ki [1]: 14 nM

SMILES: CCN(CC)c1nc(C)nc(N(CC)c2c(Br)cc(OC)cc2OC)n1
- Ki [1]: 10 nM

SMILES: CCN(c1nc(C)nc(N(CCOC)CCOC)n1)c1ccc(C(C)C)cc1Br
- Ki [1]: 18 nM

SMILES: CCN(c1ccc(C(C)C)cc1)c1nc(C)cc(C)n1
- Ki [1]: > 1000 nM

SMILES: CCCCN(CC)c1nc(C)nc(N(CC)c2ccc(OC(F)(F)F)cc2Br)n1
- Ki [1]: 5 nM

SMILES: CCCCN(Cc1nn[nH]n1)c1cc(C)nc(N(CC)c2ccc(C(C)C)cc2Br)n1
- Ki [1]: > 1000 nM

SMILES: CCN(c1nc(C)cc(C)n1)c1ccc(C(C)=O)cc1SC
- Ki [1]: 90 nM

SMILES: CCN(CC)c1nc(C)nc(N(CC)c2ccc(N(C)C)cc2Br)n1
- Ki [1]: 6 nM

SMILES: CCN(CC)c1cc(C)nc(N(CC)c2ccc(C(C)C)cc2Br)n1
- Ki [1]: 22 nM and 30 nM

SMILES: CCN(c1nc(C)cc(N(CCOC)CCOC)n1)c1ccc(C(C)C)cc1Br
- Ki [1]: 25 nM

SMILES: CCc1cc(CC)nc(N(CC)c2ccc(C(C)C)cc2Br)n1
- Ki [1]: > 100 nM

SMILES: CCCCc1ccc(N(CC)c2nc(C)cc(C)n2)c(Br)c1
- Ki [1]: > 100 nM

SMILES: CCN(CC)c1cc(C)nc(N(CC)c2c(Br)cc(C(C)C)cc2SC)n1
- Ki [1]: 26 nM

SMILES: CCCCN(CC#N)c1nc(C)nc(N(CC)c2ccc(N(C)C)cc2C(F)(F)F)n1
- Ki [1]: 6 nM

SMILES: CCCCN(CC)c1cc(C)nc(N(CC)c2ccc(C(C)=O)cc2Br)n1
- Ki [1]: 8 nM

SMILES: CCCCN(CCC#N)c1nc(C)nc(N(CC)c2ccc(N(C)C)cc2C)n1
- Ki [1]: 8 nM

SMILES: CCN(c1nc(C)cc(N(CCOC)Cc2ccccc2)n1)c1ccc(C(C)C)cc1Br
- Ki [1]: 14 nM

SMILES: CCCN(CCC)c1nc(C)nc(N(CC)c2ccc(N(C)C)cc2C(F)(F)F)n1
- Ki [1]: 6 nM

SMILES: CCN(c1nc(C)nc(N2CCOCC2)n1)c1c(Br)cc(OC)cc1OC
- Tmax [3]: 1.6 h
- clearance [4]: 21.7 mL/min/kg
- Tmax [5]: 0.5 h
- half-life [6]: 15.6 h
- Cmax [7]: 2700 nM
- Ki [1]: 32 nM
- half-life [8]: 7.6 h
- clearance [9]: 48.3 mL/min/kg
- Cmax [10]: 753 nM
- half-life [11]: 6 h
- bioavailability [12]: 47%
- Tmax [13]: 0.3 h
- bioavailability [14]: 20%
- Cmax [15]: 21 nM
- clearance [16]: 66.7 mL/min/kg
- Tmax [17]: 0.3 h
- Cmax [18]: 730 nM

SMILES: CCN(CCOC)c1nc(C)nc(N(CC)c2c(C)cc(C)cc2C)n1
- Ki [1]: 31 nM

SMILES: CCN(c1nc(C)cc(C)n1)c1c(Br)cc(OC)cc1OC
- bioavailability [19]: 26%
- Tmax [20]: 1.2 h
- Cmax [7]: 366 nM
- Ki [1]: 12 nM
- clearance [21]: 88.7 mL/min/kg
- bioavailability [12]: 4%
- Cmax [22]: 1880 nM
- half-life [23]: 5.9 h
- Tmax [24]: 0.25 h

SMILES: CCCCN(CC)c1nc(C)nc(N(CC)c2ccc(C(C)C)cc2Br)n1
- Ki [1]: 5 nM

SMILES: CCN(c1nc(C)cc(C)n1)c1ccc(N(C)C)cc1SC
- Ki [1]: 20 nM

SMILES: CCN(CC)c1cc(C)nc(N(CC)c2ccc(N(C)C)cc2Br)n1
- Ki [1]: 27 nM

SMILES: CCc1ccc(N(C)c2nc(C)cc(C)n2)c(Br)c1
- Ki [2]: 187 nM

SMILES: Cc1ccc(N(C)c2nc(C)cc(C)n2)c(Br)c1
- Ki [2]: 1100 nM

SMILES: CCN(CC)c1nc(C)nc(N(CC)c2ccc(C(C)=O)cc2Br)n1
- Ki [1]: 17 nM

SMILES: CCN(c1nc(C)cc(N2CCNCC2)n1)c1ccc(C(C)C)cc1Br
- Ki [1]: > 1000 nM

SMILES: CCC(CC)CNc1cc(C)nc(N(CC)c2ccc(C(C)C)cc2Br)n1
- Ki [1]: 44 nM

SMILES: CCCN(CC1CC1)c1nc(C)nc(N(CC)c2ccc(N(C)C)cc2C(F)(F)F)n1
- Ki [1]: 5 nM

SMILES: CCN(c1nc(C)cc(C)n1)c1ccc(N(C)C)cc1C
- Ki [1]: 54 nM

SMILES: C=CCN(CC=C)c1nc(C)nc(N(CC)c2ccc(C(C)C)cc2Br)n1
- Ki [1]: 4 nM

SMILES: CCN(CCOC)c1cc(C)nc(N(CC)c2ccc(C(C)C)cc2Br)n1
- Ki [1]: 22 nM

SMILES: CCCCN(CC#N)c1nc(C)nc(N(CC)c2ccc(N(C)C)cc2C)n1
- Ki [1]: 8 nM

SMILES: CCN(CC)c1cc(C)nc(N(CC)c2ccc(S(C)(=O)=O)cc2Br)n1
- Ki [1]: 24 nM
